Measured values as given in patent US5057520A, “7-(peptidylpyrolidinyl)naphthyridine antibacterial compounds” (Abbott Laboratories, priority 1989, dated 1991).
≈ marks a conversion by molar mass, not a printed value.

What was measured:
Stap. Aureus NCTC 10649 = test: Acute mouse protection test; format: in vivo; settings: mice infected i.p. with Stap. Aureus NCTC 10649, observed 7 days
ESCHERICHIA COLI KNK 437 = test: In vitro MIC, agar dilution (BHIA); format: cell-based
[1] = system: MICROCOCCUS LUTEUS ATCC 9341; test: In vitro MIC, agar dilution (BHIA); format: cell-based
[2] = system: PROVIDENCIA STUARTII CMX 640; test: In vitro MIC, agar dilution (BHIA); format: cell-based
[3] = system: PSEUDOMONAS AERUGINOSA A5007; test: In vitro MIC, agar dilution (BHIA); format: cell-based
[4] = system: STREPTOCOCCUS PYOGENES 2548 INDUC; test: In vitro MIC, agar dilution (BHIA); format: cell-based
[5] = system: PSEUDOMONAS AERUGINOSA K799/61; test: In vitro MIC, agar dilution (BHIA); format: cell-based
[6] = Conversion of prodrug to parent drug in whole blood at 37° C.; format: in vitro ADME, Rat
Method: (§1) An aqueous solution of prodrug (Z) is spiked into fresh whole blood containing sodium heparin as an anticoagulant. The sample is mixed gently by inversion and placed in a 37° waterbath. At selected time intervals an 0.5 ml aliquot of blood is removed and placed in a chilled 1.5 ml centrifuge tube (ice temperature). Samples are centrifuges at 13,000 rpm for two minutes to separate plasma. An 0.2 ml aliquot of the plasma sample is combined with 0.2 ml internal standard (7-(4-amino-2-methyl-1-pyrrolidinyl)-1-(2,4-difluorophenyl)-6-fluoro-1,4-d ihydro-4-oxo-1,8-naphthyridine-3-carboxylic acid in 0.2M sodium phosphate pH 7.2 buffer) and 6 mls CH2 Cl2 :EtoH (9:1 by volume). Samples are capped and shaken gently for 10 minutes. Samples are centrifuges at 2500 rpm for 10 minutes (4° C.). The aqueous layer is aspirated to waste and the organic layer is transferred to a conical centrifuge tube and evaporated to dryness with a stream of dry air and low heat ([…]). Samples are reconstituted with 0.2 ml mobile phase followed by vortexing. Samples are centrifuges at 2500 rpm for 10 minutes to separate precipitate. The supernatant is transferred to a WISP vial with plastic insert for HPLC analysis.

[7] = as above; format: in vitro ADME, Dog
[8] = system: ENTEROBACTER AEROGENES ATCC 13048; test: In vitro MIC, agar dilution (BHIA); format: cell-based
ESCHERICHIA COLI JUHL = test: In vitro MIC, agar dilution (BHIA); format: cell-based
[9] = system: PSEUDOMONAS AERUGINOSA BMH10; test: In vitro MIC, agar dilution (BHIA); format: cell-based
ACINETOBACTER SP CMX 669 = test: In vitro MIC, agar dilution (BHIA); format: cell-based
ESCHERICHIA COLI SS = test: In vitro MIC, agar dilution (BHIA); format: cell-based
Description: (§2) The MIC results are in ug/ml.

ESCHERICHIA COLI H560 = test: In vitro MIC, agar dilution (BHIA); format: cell-based
Description: as §2

ESCHERICHIA COLI DC-2 = test: In vitro MIC, agar dilution (BHIA); format: cell-based
Description: as §2

[10] = system: ENTEROCOCCUS FAECIUM ATCC 8043; test: In vitro MIC, agar dilution (BHIA); format: cell-based
[11] = system: STREPTOCOCCUS BOVIS A5169; test: In vitro MIC, agar dilution (BHIA); format: cell-based; settings: STREPTOCOCCUS BOVIS A5169
[12] = system: STREPTOCOCCUS AGALACTIAE CMX 508; test: In vitro MIC, agar dilution (BHIA); format: cell-based; settings: STREPTOCOCCUS AGALACTIAE CMX 508
[13] = system: STREPTOCOCCUS PYOGENES 930 CONST; test: In vitro MIC, agar dilution (BHIA); format: cell-based
[14] = Conversion of prodrug to parent drug in whole blood at 37° C.; format: in vitro ADME, Human
Method: as §1

[15] = system: MICROCOCCUS LUTEUS ATCC 4698; test: In vitro MIC, agar dilution (BHIA); format: cell-based
[16] = system: PSEUDOMONAS AERUGINOSA K799/WT; test: In vitro MIC, agar dilution (BHIA); format: cell-based
E. Coli Juhl = test: Acute mouse protection test; format: in vivo; settings: mice infected i.p. with E. Coli JUHL, observed 7 days
PSEUDOMONAS CEPACIA 296I = test: In vitro MIC, agar dilution (BHIA); format: cell-based
P. Aeruginosa A5007 = test: Acute mouse protection test; format: in vivo; settings: mice infected i.p. with P. Aeruginosa A5007, observed 7 days
[17] = system: KLEBSIELLA PNEUMONIAE ATCC 8045; test: In vitro MIC, agar dilution (BHIA); format: cell-based
[18] = system: STREPTOCOCCUS PYOGENES EES61; test: In vitro MIC, agar dilution (BHIA); format: cell-based; settings: STREPTOCOCCUS PYOGENES EES61
[19] = SC dosing at 1 and 5 hours post-infection
[20] = oral dosing at 1 and 5 hours post-infection

Compound: CC(N)C(=O)NC(C)C(=O)NC1CCN(c2nc3c(cc2F)c(=O)c(C(=O)O)cn3-c2ccc(F)cc2F)C1 (centres unmarked) [Example 15]
- SC (ED50) (Stap. Aureus NCTC 10649; [19]): 0.8 mg/kg/day
- Oral (ED50) (Stap. Aureus NCTC 10649; [20]): 1.3 mg/kg/day
- MIC (ESCHERICHIA COLI KNK 437): 50 µg/mL (≈ 91.5 µM)
- MIC [1]: > 100 µg/mL
- MIC [2]: 100 µg/mL (≈ 183 µM)
- MIC [3]: 100 µg/mL (≈ 183 µM)
- MIC [4]: 12.5 µg/mL (≈ 22.9 µM)
- MIC [5]: 3.1 µg/mL (≈ 5.67 µM)
- Half Life Rat [6]: 1.41 min
- Half Life Dog [7]: 2.4 m
- MIC [8]: 25 µg/mL (≈ 45.7 µM)
- MIC (ESCHERICHIA COLI JUHL): 12.5 µg/mL (≈ 22.9 µM)
- MIC [9]: 100 µg/mL (≈ 183 µM)
- MIC (ACINETOBACTER SP CMX 669): 12.5 µg/mL (≈ 22.9 µM)
- MIC (ESCHERICHIA COLI SS): .39 µg/mL (≈ 0.714 µM)
- MIC (ESCHERICHIA COLI H560): 6.2 µg/mL (≈ 11.3 µM)
- MIC (ESCHERICHIA COLI DC-2): 100 µg/mL (≈ 183 µM)
- Solubility pH 7.4: 1.07 mg/ml
- MIC [10]: 50 µg/mL (≈ 91.5 µM)
- MIC [11]: 50 µg/mL (≈ 91.5 µM)
- MIC [12]: 12.5 µg/mL (≈ 22.9 µM)
- MIC [13]: 12.5 µg/mL (≈ 22.9 µM)
- Half Life Human [14]: 3.0 m
- MIC [15]: 100 µg/mL (≈ 183 µM)
- MIC [16]: 50 µg/mL (≈ 91.5 µM)
- SC (ED50) (E. Coli Juhl; [19]): 0.5 mg/kg/day
- Oral (ED50) (E. Coli Juhl; [20]): 2.0 mg/kg/day
- MIC (PSEUDOMONAS CEPACIA 296I): 50 µg/mL (≈ 91.5 µM)
- SC (ED50) (P. Aeruginosa A5007; [19]): 3.1 mg/kg/day
- Oral (ED50) (P. Aeruginosa A5007; [20]): 9.1 mg/kg/day
- MIC [17]: 12.5 µg/mL (≈ 22.9 µM)
- MIC [18]: 12.5 µg/mL (≈ 22.9 µM)
